According to PMC9889419 (Pharmacological Reports, 2022):
Where a name gives a salt, the structure may show the parent alone.

Tests used:
hNav1.6 sodium channel = biological target: T1, hNav1.6 sodium channel (Homo sapiens, UniProt Q9UQD0); assay: Nav channel electrophysiology (IonWorks Quattro); type: cell-based
T1 construct: host or cells: CHO cells

[1] = Degradation kinetics under basic conditions; type: physicochemical; conditions: 70.0 ± 0.5 °C, pH 9.90, 1,4-dioxane 20% v/v
Protocol: Chromatographic conditions. The liquid chromatography system Merck-Hitachi LaChrom Elite, equipped with a LiChroSpher RP-18 (250 × 4.6 mm; particle size 5 µm) column from Merck was used. Isocratic elution using a mobile phase composed of phosphate buffer pH = 4.36 and acetonitrile (40:60, v/v) at a flow rate of 1 mL min^−1 at 25 °C and single-wavelength UV detection at 260 nm was applied for the analysis. The injection volume was 20 µL.
Kinetic studies. […] After 5 min, first 50 µL sample was taken using a Hamilton syringe. The sample was diluted with 100 µL of pH = 4.36 phosphate buffer and frozen at − 18 °C. The reaction was conducted for 1606 h with samples taken at selected time intervals. After the experiment was finished, the samples have been defrosted and analyzed using the RP-HPLC method described above.

T1 sequence (Q9UQD0 whole entry): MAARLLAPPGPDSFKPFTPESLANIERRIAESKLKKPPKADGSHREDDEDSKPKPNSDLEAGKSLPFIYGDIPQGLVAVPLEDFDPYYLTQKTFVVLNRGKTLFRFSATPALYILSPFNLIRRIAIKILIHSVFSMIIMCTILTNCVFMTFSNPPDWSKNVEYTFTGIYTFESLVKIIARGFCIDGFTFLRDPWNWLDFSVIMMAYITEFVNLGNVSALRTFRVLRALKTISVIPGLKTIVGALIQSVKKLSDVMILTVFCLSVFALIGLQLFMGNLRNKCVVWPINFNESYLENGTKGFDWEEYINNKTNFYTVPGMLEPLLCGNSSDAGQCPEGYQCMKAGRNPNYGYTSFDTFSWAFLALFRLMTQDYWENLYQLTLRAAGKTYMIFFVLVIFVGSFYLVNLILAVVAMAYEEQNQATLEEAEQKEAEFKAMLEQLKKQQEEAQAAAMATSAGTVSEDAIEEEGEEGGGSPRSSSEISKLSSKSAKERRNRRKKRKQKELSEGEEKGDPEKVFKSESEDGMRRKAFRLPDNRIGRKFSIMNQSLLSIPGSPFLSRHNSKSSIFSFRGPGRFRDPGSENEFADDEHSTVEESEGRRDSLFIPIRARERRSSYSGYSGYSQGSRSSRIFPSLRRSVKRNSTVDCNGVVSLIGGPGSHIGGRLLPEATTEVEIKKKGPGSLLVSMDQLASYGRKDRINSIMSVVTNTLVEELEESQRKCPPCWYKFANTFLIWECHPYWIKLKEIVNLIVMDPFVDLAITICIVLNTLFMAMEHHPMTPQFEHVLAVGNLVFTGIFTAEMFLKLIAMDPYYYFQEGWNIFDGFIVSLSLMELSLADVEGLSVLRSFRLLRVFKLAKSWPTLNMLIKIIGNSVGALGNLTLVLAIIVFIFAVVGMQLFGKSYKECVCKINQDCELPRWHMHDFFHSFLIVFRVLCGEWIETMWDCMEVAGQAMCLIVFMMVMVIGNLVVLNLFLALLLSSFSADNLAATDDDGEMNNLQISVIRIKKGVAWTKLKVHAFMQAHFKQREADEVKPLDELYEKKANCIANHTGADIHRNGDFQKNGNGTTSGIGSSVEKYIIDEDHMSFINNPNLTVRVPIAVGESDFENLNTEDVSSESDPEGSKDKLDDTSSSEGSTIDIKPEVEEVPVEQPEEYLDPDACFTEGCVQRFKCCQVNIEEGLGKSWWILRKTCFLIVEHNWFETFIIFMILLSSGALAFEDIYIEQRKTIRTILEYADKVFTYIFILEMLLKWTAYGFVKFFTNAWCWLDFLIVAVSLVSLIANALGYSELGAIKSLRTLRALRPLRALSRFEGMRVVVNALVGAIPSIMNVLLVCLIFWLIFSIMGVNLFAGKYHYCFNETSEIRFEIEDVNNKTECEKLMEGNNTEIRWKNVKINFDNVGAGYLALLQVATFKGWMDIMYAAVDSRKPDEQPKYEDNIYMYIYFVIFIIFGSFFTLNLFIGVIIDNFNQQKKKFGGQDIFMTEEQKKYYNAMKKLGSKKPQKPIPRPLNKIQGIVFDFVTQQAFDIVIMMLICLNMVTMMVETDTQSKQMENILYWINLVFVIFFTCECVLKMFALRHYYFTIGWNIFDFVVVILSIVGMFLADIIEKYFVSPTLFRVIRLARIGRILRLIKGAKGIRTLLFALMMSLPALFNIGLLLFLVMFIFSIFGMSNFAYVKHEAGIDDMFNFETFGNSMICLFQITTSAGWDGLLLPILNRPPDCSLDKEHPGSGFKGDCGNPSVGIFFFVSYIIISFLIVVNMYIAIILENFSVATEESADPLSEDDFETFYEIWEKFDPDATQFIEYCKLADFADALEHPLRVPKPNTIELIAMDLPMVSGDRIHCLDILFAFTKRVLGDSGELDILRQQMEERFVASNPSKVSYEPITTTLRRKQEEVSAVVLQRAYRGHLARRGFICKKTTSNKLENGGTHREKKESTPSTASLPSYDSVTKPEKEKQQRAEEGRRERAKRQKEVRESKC

CCC(CO)NCCOc1c(C)cccc1Cl (stereo not drawn) [KM-408, R,S-2-((2-(2-chloro-6-methylphenoxy)ethyl)amino)butan-1-ol hydrochloride]
IC50 (hNav1.6 sodium channel; 10 Hz): 20.5 µM
IC50 (hNav1.6 sodium channel; Inactivated state): < 10 µM
IC50 (hNav1.6 sodium channel; Tonic block): 60.1 µM
Rate constant k [1]: 0.83·10^–3 h^−1
t0.1 [1]: 127.0 h
half-life at 5 mg/mL ([1]; borate buffer with 20% v/v 1,4-dioxane, pH 9.9, read-out: Half-life t0.5 (converted)): 34.8 days
